Measurements taken from patent publication US20100303754A1, “PROCESS FOR PREPARATION OF CYCLODEXTRIN OLIGOMERS OR POLYMERS, PRODUCTS OBTAINED AND USES” (BIOCYDEX, priority 2006, published 2010).
≈ marks a conversion by molar mass, not a printed value.

Experiment: Solubilization tests of active ingredients by cyclodextrin dimers/trimer (soluble fraction analysed by CLHP)
Type: physicochemical
Details: thermodynamic from solid; Water alone, no cyclodextrin oligomer; stirred 24 hours; read-out: Amount of active ingredient solubilized in water
Description: Each solution is stirred for 24 hours, and then the soluble fractions are analyzed by CLHP after ultracentrifuging and filtration.

| solubility at 24 h [µg/mL] | SMILES |
| --- | --- |
| 0.1 (≈ 0.2 µM) | CCC(=O)O[C@]1(C(=O)SCF)[C@H](C)C[C@H]2[C@@H]3C[C@H](F)C4=CC(=O)C=C[C@]4(C)[C@@]3(F)[C@@H](O)C[C@@]21C [Fluticasone Propionate] |
| 464 (≈ 555 µM) | CC[C@H]1OC(=O)[C@H](C)[C@@H](O[C@H]2C[C@@](C)(OC)[C@@H](O)[C@H](C)O2)[C@H](C)[C@@H](O[C@@H]2O[C@H](C)C[C@H](N(C)C)[C@H]2O)[C@](C)(O)C[C@@H](C)/C(=N\OCOCCOC)[C@H](C)[C@@H](O)[C@]1(C)O [Roxithromycin] |
| 0.7 (≈ 0.82 µM) | CC(=O)O[C@H]1C(=O)[C@@]2(C)[C@H]([C@H](OC(=O)c3ccccc3)[C@]3(O)C[C@H](OC(=O)[C@H](O)[C@@H](NC(=O)c4ccccc4)c4ccccc4)C(C)=C1C3(C)C)[C@]1(OC(C)=O)CO[C@@H]1C[C@@H]2O [Taxol] |
| 4 (≈ 4.95 µM) | CC(=O)O[C@@]12CO[C@@H]1C[C@H](O)[C@@]1(C)C(=O)[C@H](O)C3=C(C)[C@@H](OC(=O)[C@H](O)[C@@H](NC(=O)OC(C)(C)C)c4ccccc4)C[C@@](O)([C@@H](OC(=O)c4ccccc4)[C@H]21)C3(C)C [Taxotere] |
| 685 (≈ 1960 µM) | C[C@@H](c1ncncc1F)[C@](O)(Cn1cncn1)c1ccc(F)cc1F [Voriconazole] |
